How the values were obtained:
[1] = Metabolic stability and noribogaine formation in rat liver microsomes (RLM); conditions: for Percentage turnover of test compounds (percent remaining): 10 μM, +NADPH
Experimental: (§1) Metabolism Studies. Metabolic stability of test compounds was evaluated in liver microsomes from rat (RLM) and human (HLM). This was accomplished by incubating test compounds with microsomes and monitoring disappearance of parent compound as well as metabolite formation over time using LC-MS/MS in Multiple Reaction Monitoring mode (MRM).
(§2) Stock solutions of test compounds were prepared in DMSO at a concentration of 10 mM.
(§3) Total Incubation volume: 100 μL
(§4) Compound concentration: 10 μM
(§5) Protein Concentration: 0.5 mg/mL (0.25 mg/mL for positive controls)
(§6) From the above mix, 70 PL was added to individual wells of 96 well reaction plates and pre-incubated at 37° C. for 5 min. […] Reactions without NADPH and buffer controls (minus NADPH) at 0 min and 60 min were also incubated to rule out non-NADPH metabolism or chemical instability in the incubation buffer. All reactions were terminated using 100 μL of ice-cold acetonitrile containing internal standard (glipizide) at 0, 5, 15, 30 and 60 min.
(§7) Stock solution of noribogaine was prepared in DMSO at a concentration of 20 mM and serially diluted in DMSO to prepare 10, 3, 1, 0.3, 0.1 and 0.03 mM solutions respectively.
(§8) Samples were monitored for parent compounds disappearance and formation of metabolite in MRM mode using LC-MS/MS instrument (API-4000 with Waters UPLC).
(§9) The percent remaining of test compounds and positive control in each sample was determined by considering peak area ratio in the 0 minute sample as 100%.
(§10) In vitro intrinsic clearance (CL′int) (units in mL/min/kg) was calculated using the formula: […]
(§11) For human, monkey, dog, rat and mouse the liver weight are 20 gm, 32 gm, 32 gm, 40 gm and 90 gm respectively.

[2] = in vitro; conditions: for Percentage turnover of test compounds (percent remaining): 10 μM, +NADPH
Experimental: as §1, §2, §3, §4, §5, §6, §7, §8, §9, §10, §11

[3] = Buffer control for chemical instability in the incubation buffer; type: physicochemical; conditions: Kphos buffer pH 7.4, 37° C., no microsomes, minus NADPH
[4] = Plasma pharmacokinetics and brain distribution in male Wistar rats after a single intraperitoneal dose
Experimental: Formulation strengths for intraperitoneal administration was 4 mg/mL. A weighed quantity of compound was combined with an appropriate volume of vehicle (10% ethanol and 90% normal saline), the mixture was warmed to 55° C. and vortexed until a clear yellowish solution was obtained. The dosing volume administered was 10 mL/kg for intraperitoneal route.
Healthy male Wistar rats (8-12 weeks old) weighing between 280 to 300 g were procured from Global, India. Three rats were housed in each cage. […] Temperature and humidity were recorded by auto-controlled data logger system. All the animals were provided laboratory rodent diet (Envigo Research private Ltd, Hyderabad). Reverse osmosis water treated with ultraviolet light was provided ad libitum.
Blood samples (approximately 120 μL) were collected under light isoflurane anesthesia from retro orbital plexus from a set of three rats at specified time intervals. Samples were collected into labeled micro-tubes, containing K2EDTA solution (10 μL of 20% K2EDTA of solution per mL of blood) as an anticoagulant. Plasma was immediately harvested from the blood by centrifugation at 4000 rpm for 10 min at 4±2° C. and stored below −70±10° C. until bioanalysis.
Immediately, after blood collection animals were euthanized with excess CO2 and brain was isolated at each time point. Brain was rinsed three times in ice cold PBS (for 5-10 seconds/rinse using ˜5-10 mL fresh PBS in disposable petri dish for each rinse) and dried on blotting paper. Brain samples were homogenized using ice-cold phosphate buffer saline (pH 7.4) and homogenates were stored below −70±10° C. until analysis. Total homogenate volume was three times the tissue weight.
The extraction procedure for plasma and brain samples and the spiked plasma and brain calibration standards were identical: A 25 PL of study sample or spiked plasma and brain calibration standard was added to individual pre-labeled micro-centrifuge tubes followed by 100 PL of internal standard prepared in Acetonitrile (Glipizide, 500 ng/mL) was added except for blank, where 100 μL of Acetonitrile was added. Samples were vortexed for 5 minutes and then centrifuged for 10 minutes at a speed of 4000 rpm at 4° C. Following centrifugation, 100 μL of clear supernatant was transferred to a 96 well plate and analyzed using LC-MS/MS.
Non-compartmental analysis tool of Phoenix WinNonlin® (Version 7.0) was used to assess the pharmacokinetic parameters. Peak plasma concentrations (Cmax) and time for the peak plasma concentrations (Tmax) were the observed values. The areas under the concentration time curve (AUClast and AUCinf) were calculated by linear trapezoidal rule. The terminal elimination rate constant, ke was determined by regression analysis of the linear terminal portion of the log plasma concentration-time curve.

[5] = 0.08 h after CD3O-ibogamine 40 mg/kg i.p.
[6] = 0.5 h after CD3O-ibogamine 40 mg/kg i.p.
[7] = 1 h after CD3O-ibogamine 40 mg/kg i.p.
[8] = 2 h after CD3O-ibogamine 40 mg/kg i.p.
[9] = 3 h after CD3O-ibogamine 40 mg/kg i.p.
[10] = male, Wistar, rat, in vivo, ip, 40 mg/kg, brain, analyte after CD3O-ibogamine 40 mg/kg i.p.
[11] = male, Wistar, rat, in vivo, ip, 40 mg/kg, plasma, analyte after CD3O-ibogamine 40 mg/kg i.p.

[2H]C([2H])([2H])Oc1ccc2[nH]c3c(c2c1)CCN1C[C@H]2C[C@H](CC)C1[C@H]3C2 [CD3O-ibogamine]
CLh, int ([1]; RLM): 44.5 L/h/kg
t1/2 ([1]; RLM): <5 min
Percentage turnover of test compounds (percent remaining) ([1]; RLM, 0 min): 100%
Percentage turnover of test compounds (percent remaining) ([1]; RLM, 5 min): 36%
Percentage turnover of test compounds (percent remaining) ([1]; RLM, 15 min): 0%
Percentage turnover of test compounds (percent remaining) ([1]; RLM, 30 min): 1%
Percentage turnover of test compounds (percent remaining) ([1]; RLM, 60 min): 0%
% Remaining at 60 min (+NADPH) ([1]; RLM, summary): 0%
% Remaining at 60 min (−NADPH) ([1]; RLM, without NADPH): 105%
metabolism compared to ibogaine in the in vitro study ([1]; in vitro microsome study): metabolized faster than ibogaine
half-life at 10 μM ([1]; male, rat, microsomes, pH 7.4): < 5 min
total amount of noribogaine produced compared to ibogaine ([1]; short incubation period (~5 min)): comparable
CLh, int ([2]; HLM): 2.52 L/h/kg
metabolic degradation, times faster compared to that of ibogaine ([2]; HLM): more than 2 ×
Percentage turnover of test compounds (percent remaining) ([2]; HLM, 0 min): 100%
Percentage turnover of test compounds (percent remaining) ([2]; HLM, 5 min): 98%
Percentage turnover of test compounds (percent remaining) ([2]; HLM, 15 min): 83%
Percentage turnover of test compounds (percent remaining) ([2]; HLM, 30 min): 67%
Percentage turnover of test compounds (percent remaining) ([2]; HLM, 60 min): 25%
% Remaining at 60 min (+NADPH) ([2]; HLM, summary): 25%
% Remaining at 60 min (−NADPH) ([2]; HLM, without NADPH): 105%
half-life ([2]; human, microsomes, pH 7.4): 30 min
% Remaining at 60 min (Buffer) [3]: 90%
Mean brain concentration [4, 5]: 11340 ng/g
Mean plasma concentration [4, 5]: 1.229 µg/mL
Mean brain concentration [4, 6]: 6647 ng/g
Mean plasma concentration [4, 6]: 0.698 µg/mL
Mean brain concentration [4, 7]: 5363 ng/g
Mean plasma concentration [4, 7]: 0.62 µg/mL
Mean brain concentration [4, 8]: 3941 ng/g
Mean plasma concentration [4, 8]: 0.343 µg/mL
Mean brain concentration [4, 9]: 4684 ng/g
Mean plasma concentration [4, 9]: 0.473 µg/mL
AUClast ([4]; brain, analyte after CD3O-ibogamine 40 mg/kg i.p.): 16357.31 ng·h/g
AUC(0-t) ([4]; male, Wistar, rat, in vivo, ip, 40 mg/kg, AUClast, plasma, analyte after CD3O-ibogamine 40 mg/kg i.p.): 1.7 µg·h/mL
Cmax [4, 10]: 11300 ng/g
Cmax [4, 11]: 1.23 µg/mL
Tmax [4, 10]: 4.8 min
Tmax [4, 11]: 4.8 min
difference of plasma concentration versus ibogaine (lower for CD3O-ibogamine) ([4]; single i.p. dose 40 mg/kg): approximately 25%
maximum brain concentration as percent of the ibogaine concentration detected after its administration ([4]; single i.p. dose 40 mg/kg): ~43%
